Laboratory results: patent publication US12077503B2, “Substituted cyclic amides and their use as herbicides” (FMC CORPORATION, priority 2015, dated 2024)

How the values were obtained:
Format in all cases: in vivo
[1] = tested on: barnyardgrass (Echinochloa crus-galli); assay: Test G Pre-Emergence Protocol; details: Echinochloa crus-galli, pre-emergence, 312 h, evaluated after 13 days; for pest or weed control at 15.625 g/ha: 15.625 g ai/ha, read-out: Barnyard grass damage rating (100=total damage to plant; 0=no damage to plant); for pest or weed control at 62.5 g/ha: 62.5 g ai/ha, 100=total damage to plant, 0=no damage to plant, read-out: plant damage rating, Barnyardgrass; for pest or weed control at 250 g/ha: 250 g ai/ha, read-out: Barnyardgrass damage rating (100=total damage to plant; 0=no damage to plant)
In short: (§1)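 Glasshouse pre-emergence test: soil-sown seeds, sprayed after 1 d at 15.625, 62.5 or 250 g/ha. Conditions 24/16° C day/night, 14 h light, 65% humidity, watering twice daily. Rating 13 d post-spray (100 = total damage).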

corn (Zea mays) [2] = assay: Test G Pre-Emergence Protocol; details: Zea mays, pre-emergence, 312 h, evaluated after 13 days; for plant injury at 15.625 g/ha: 15.625 g ai/ha; for plant injury at 15.625 g/ha / plant injury at 250 g/ha: read-out: Corn damage rating (100=total damage to plant; 0=no damage to plant); for plant injury at 62.5 g/ha: 62.5 g ai/ha, 100=total damage to plant, 0=no damage to plant, read-out: plant damage rating, Corn; for plant injury at 250 g/ha: 250 g ai/ha
In short: as §1

[3] = tested on: giant foxtail (Setaria faberi); assay: Test G Pre-Emergence Protocol; details: Setaria faberi, pre-emergence, 312 h, evaluated after 13 days; for pest or weed control at 15.625 g/ha: 15.625 g ai/ha; for pest or weed control at 15.625 g/ha / pest or weed control at 250 g/ha: read-out: Foxtail, Giant damage rating (100=total damage to plant; 0=no damage to plant); for pest or weed control at 62.5 g/ha: 62.5 g ai/ha, 100=total damage to plant, 0=no damage to plant, read-out: plant damage rating, Foxtail, Giant; for pest or weed control at 250 g/ha: 250 g ai/ha
In short: as §1

[4] = tested on: ivy-leaved morning glory (Ipomoea hederacea); assay: Test G Pre-Emergence Protocol; details: Ipomoea, pre-emergence, 312 h, evaluated after 13 days; for pest or weed control at 15.625 g/ha: 15.625 g ai/ha, read-out: Morning-glory, Ivy-leaved damage rating (100=total damage to plant; 0=no damage to plant); for pest or weed control at 62.5 g/ha: 62.5 g ai/ha, 100=total damage to plant, 0=no damage to plant, read-out: plant damage rating, Morningglory, Ivy-leaved; for pest or weed control at 250 g/ha: 250 g ai/ha, read-out: Morningglory, Ivy-leaved damage rating (100=total damage to plant; 0=no damage to plant)
In short: as §1

[5] = tested on: redroot pigweed (Amaranthus retroflexus); assay: Test G Pre-Emergence Protocol; details: Amaranthus retroflexus, pre-emergence, 312 h, evaluated after 13 days; for pest or weed control at 15.625 g/ha: 15.625 g ai/ha; for pest or weed control at 15.625 g/ha / pest or weed control at 250 g/ha: read-out: Pigweed, Redroot damage rating (100=total damage to plant; 0=no damage to plant); for pest or weed control at 62.5 g/ha: 62.5 g ai/ha, 100=total damage to plant, 0=no damage to plant, read-out: plant damage rating, Pigweed, Redroot; for pest or weed control at 250 g/ha: 250 g ai/ha
In short: as §1

[6] = tested on: velvetleaf (Abutilon theophrasti); assay: Test G Pre-Emergence Protocol; details: Abutilon theophrasti, pre-emergence, 312 h, evaluated after 13 days; for pest or weed control at 15.625 g/ha: 15.625 g ai/ha; for pest or weed control at 15.625 g/ha / pest or weed control at 250 g/ha: read-out: Velvetleaf damage rating (100=total damage to plant; 0=no damage to plant); for pest or weed control at 62.5 g/ha: 62.5 g ai/ha, 100=total damage to plant, 0=no damage to plant, read-out: plant damage rating, Velvetleaf; for pest or weed control at 250 g/ha: 250 g ai/ha
In short: as §1

[7] = tested on: barnyardgrass (Echinochloa crus-galli); assay: Test G Post-Emergence Protocol; details: Echinochloa crus-galli, post-emergence, 312 h; for pest or weed control at 15.625 g/ha: 15.625 g ai/ha, evaluated after 13 days (100=total damage to plant; 0=no damage to plant), read-out: Barnyardgrass damage rating; for pest or weed control at 62.5 g/ha: 62.5 g ai/ha, read-out: Barnyardgrass damage rating (100=total damage to plant; 0=no damage to plant); for pest or weed control at 62.5 g/ha / pest or weed control at 250 g/ha: evaluated after 13 days; for pest or weed control at 250 g/ha: 250 g ai/ha, read-out: damage to plant, Barnyardgrass (100=total damage to plant; 0=no damage to plant)
In short: (§2)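 A glasshouse post-emergence test: 8-day-old plants sprayed at 15.625, 62.5 or 250 g/ha, then grown at 24/16 °C day/night with 14 h light and 65% humidity. Damage rated 13 days later, 0–100.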

corn (Zea mays) [8] = assay: Test G Post-Emergence Protocol; details: Zea mays, post-emergence, 312 h; for plant injury at 15.625 g/ha: 15.625 g ai/ha, evaluated after 13 days (100=total damage to plant; 0=no damage to plant), read-out: Corn damage rating; for plant injury at 62.5 g/ha: 62.5 g ai/ha, read-out: Corn damage rating (100=total damage to plant; 0=no damage to plant); for plant injury at 62.5 g/ha / plant injury at 250 g/ha: evaluated after 13 days; for plant injury at 250 g/ha: 250 g ai/ha, read-out: damage to plant, Corn (100=total damage to plant; 0=no damage to plant)
In short: as §2

[9] = tested on: giant foxtail (Setaria faberi); assay: Test G Post-Emergence Protocol; details: Setaria faberi, post-emergence, 312 h; for pest or weed control at 15.625 g/ha: 15.625 g ai/ha, evaluated after 13 days (100=total damage to plant; 0=no damage to plant), read-out: Foxtail, Giant damage rating; for pest or weed control at 62.5 g/ha: 62.5 g ai/ha, read-out: Foxtail, Giant damage rating (100=total damage to plant; 0=no damage to plant); for pest or weed control at 62.5 g/ha / pest or weed control at 250 g/ha: evaluated after 13 days; for pest or weed control at 250 g/ha: 250 g ai/ha, read-out: damage to plant, Foxtail, Giant (100=total damage to plant; 0=no damage to plant)
In short: as §2

[10] = tested on: ivy-leaved morning glory (Ipomoea hederacea); assay: Test G Post-Emergence Protocol; details: Ipomoea, post-emergence, 312 h; for pest or weed control at 15.625 g/ha: 15.625 g ai/ha, evaluated after 13 days (100=total damage to plant; 0=no damage to plant), read-out: Morningglory, Ivy-leaved damage rating; for pest or weed control at 62.5 g/ha: 62.5 g ai/ha, read-out: Morningglory, Ivy-leaved damage rating (100=total damage to plant; 0=no damage to plant); for pest or weed control at 62.5 g/ha / pest or weed control at 250 g/ha: evaluated after 13 days; for pest or weed control at 250 g/ha: 250 g ai/ha, read-out: damage to plant, Morningglory, Ivy-leaved (100=total damage to plant; 0=no damage to plant)
In short: as §2

[11] = tested on: redroot pigweed (Amaranthus retroflexus); assay: Test G Post-Emergence Protocol; details: Amaranthus retroflexus, post-emergence, 312 h; for pest or weed control at 15.625 g/ha: 15.625 g ai/ha, evaluated after 13 days (100=total damage to plant; 0=no damage to plant), read-out: Pigweed, Redroot damage rating; for pest or weed control at 62.5 g/ha: 62.5 g ai/ha, read-out: Pigweed, Redroot damage rating (100=total damage to plant; 0=no damage to plant); for pest or weed control at 62.5 g/ha / pest or weed control at 250 g/ha: evaluated after 13 days; for pest or weed control at 250 g/ha: 250 g ai/ha, read-out: damage to plant, Pigweed, Redroot (100=total damage to plant; 0=no damage to plant)
In short: as §2

[12] = tested on: velvetleaf (Abutilon theophrasti); assay: Test G Post-Emergence Protocol; details: Abutilon theophrasti, post-emergence, 312 h; for pest or weed control at 15.625 g/ha: 15.625 g ai/ha, evaluated after 13 days (100=total damage to plant; 0=no damage to plant), read-out: Velvetleaf damage rating; for pest or weed control at 62.5 g/ha: 62.5 g ai/ha, read-out: Velvetleaf damage rating (100=total damage to plant; 0=no damage to plant); for pest or weed control at 62.5 g/ha / pest or weed control at 250 g/ha: evaluated after 13 days; for pest or weed control at 250 g/ha: 250 g ai/ha, read-out: damage to plant, Velvetleaf (100=total damage to plant; 0=no damage to plant)
In short: as §2

SMILES | pest or weed control at 15.625 g/ha [1] [%] | pest or weed control at 62.5 g/ha [1] [%] | pest or weed control at 250 g/ha [1] [%] | plant injury at 15.625 g/ha (corn (Zea mays) [2]) [%] | plant injury at 62.5 g/ha (corn (Zea mays) [2]) [%] | plant injury at 250 g/ha (corn (Zea mays) [2]) [%] | pest or weed control at 15.625 g/ha [3] [%] | pest or weed control at 62.5 g/ha [3] [%] | pest or weed control at 250 g/ha [3] [%] | pest or weed control at 15.625 g/ha [4] [%] | pest or weed control at 62.5 g/ha [4] [%] | pest or weed control at 250 g/ha [4] [%] | pest or weed control at 15.625 g/ha [5] [%] | pest or weed control at 62.5 g/ha [5] [%] | pest or weed control at 250 g/ha [5] [%] | pest or weed control at 15.625 g/ha [6] [%] | pest or weed control at 62.5 g/ha [6] [%] | pest or weed control at 250 g/ha [6] [%] | pest or weed control at 15.625 g/ha [7] [%] | pest or weed control at 62.5 g/ha [7] [%] | other results
CN1C[C@@H](c2ccc(C(F)(F)F)cc2)[C@H](C(=O)Nc2cccc3cn[nH]c23)C1=O (racemic) [Compound 1605] | 0 | 0 | 0 | 0 | 0 | 0 | 0 | 0 | 0 | 0 | 0 | 0 | 0 | 0 | 0 | 0 | 0 | 0 | 0 | 0 | pest or weed control at 250 g/ha [7]: 30%; plant injury at 15.625 g/ha (corn (Zea mays) [8]): 0%; plant injury at 62.5 g/ha (corn (Zea mays) [8]): 0%; plant injury at 250 g/ha (corn (Zea mays) [8]): 10%; pest or weed control at 15.625 g/ha [9]: 0%; pest or weed control at 62.5 g/ha [9]: 0%; pest or weed control at 250 g/ha [9]: 10%; pest or weed control at 15.625 g/ha [10]: 0%; pest or weed control at 62.5 g/ha [10]: 0%; pest or weed control at 250 g/ha [10]: 0%; pest or weed control at 15.625 g/ha [11]: 0%; pest or weed control at 62.5 g/ha [11]: 20%; pest or weed control at 250 g/ha [11]: 30%; pest or weed control at 15.625 g/ha [12]: 0%; pest or weed control at 62.5 g/ha [12]: 0%; pest or weed control at 250 g/ha [12]: 10%
CN1C[C@@H](c2ccc(C(F)(F)F)cc2)[C@H](C(=O)Nc2cc(F)nc(F)c2)C1=O (racemic) [Compound 1515] | 0 | 0 | 0 | 0 | 0 | 0 | 0 | 0 | 0 | 0 | 0 | 0 | 0 | 0 | 0 | 0 | 0 | 0 | 0 | 0 | pest or weed control at 250 g/ha [7]: 0%; plant injury at 15.625 g/ha (corn (Zea mays) [8]): 0%; plant injury at 62.5 g/ha (corn (Zea mays) [8]): 0%; plant injury at 250 g/ha (corn (Zea mays) [8]): 0%; pest or weed control at 15.625 g/ha [9]: 0%; pest or weed control at 62.5 g/ha [9]: 0%; pest or weed control at 250 g/ha [9]: 0%; pest or weed control at 15.625 g/ha [10]: 0%; pest or weed control at 62.5 g/ha [10]: 0%; pest or weed control at 250 g/ha [10]: 0%; pest or weed control at 15.625 g/ha [11]: 0%; pest or weed control at 62.5 g/ha [11]: 0%; pest or weed control at 250 g/ha [11]: 0%; pest or weed control at 15.625 g/ha [12]: 0%; pest or weed control at 62.5 g/ha [12]: 0%; pest or weed control at 250 g/ha [12]: 0%
